Measurements as given in patent US20210052703A1 (SHANGHAI BENEMAE PHARMACEUTICAL CORPORATION, priority 2018, published 2021).
Where two headings read alike, the source gives them in different places.

Tests used:
[1] = tested on: diet-induced obesity cynomolgus monkeys; test: body weight, food intake and body composition in diet-induced obesity cynomolgus monkeys (Example 4)
Procedure: (§1) The monkeys are divided into two groups based on age, sex, body weight and BMI, each group having one male and one female.
(§2) The study included three periods: baseline period (the first week), treatment period (the second week through the seventh week), and recovering period (the eighth week). After the monkeys adapted to the meal time for at least 30 days, the body weight, BMI, and body composition of each animal was determined at day 7 of the first baseline period.
(§3) Group 2 animals were administered three times a day at a dose of 10 μg/kg each time during week 2, three times a day at a dose of 20 μg/kg each time during week 3, and three times a day at a dose of 40 μg/kg each time during the first three days of week 4.
(§4) The dose for Group 1 animals during week 5 through week 7 was determined based on the dose given to Group 2 animals during week 2 through week 4. Group 1 animals were administered twice a day at a dose of 10 μg/kg each time during week 5, twice a day at a dose of 20 μg/kg each time during week 6, and twice a day at a dose of 20 μg/kg each time during week 7 (same dose as week 6). During the 6-week treatment period, the body weight and crown-rump height of each animal were measured at the end of each week. The body fat content was measured at week 4 and week 7. No administration was given during week 8.
(§5) The body weight was measured once a week, and crown-rump height was measured at the end of week 1, week 4, and week 7 when Dual-Energy X-ray Absorptiometry (DEXA) scan was taken. The animals were anesthetized by intramuscular administration of 0.02 m/kg Shumianning. While resting on one side, the animals were measured from the top of the head to the bottom of tail as the crown-rump height. BMI was calculated using the formula: BMI=body weight (kg)/crown-rump height (m)^2. DEXA scan was conducted while the animals were anesthetized and body compositions were analyzed based on DEXA scan.

[2] = as above; conditions: both, cynomolgus monkey, in vivo, sc
Procedure: as §1, §2, §3, §4, §5

[3] = pharmacokinetic studies in monkey models; conditions: in vivo, sc
rats = test: blood sugar increase induced by alloxan and streptozotocin in rats; format: in vivo
[4] = trials 5A and 5B: time course of action and adverse events; format: in vivo, human
diabetes patients = conditions: 0.2 mg TID for 12 weeks; temporary
type 2 diabetic patients = test: trial 5B: Beinaglutide with metformin in type 2 diabetic patients
[5] = tested on: male diet induced obesity (DIO) mice; conditions: for % of Gastric Remains / Gross Weight of Stomach / Propelling Distance of Carbon Powder / Propelling Rate of Carbon Powder: X ± SE
Procedure: Five minutes after subcutaneous injection, gavage was conducted using 5% carbon powder suspension (in 2% carboxymethylcellulose solution) at 1.5 ml/100 g body weight. […] The stomach was wiped dry with filter paper and weighed for the gross weight of the stomach. Then the content of the stomach was removed and the stomach was weighed for the net weight. The respective distance from the pyloric sphincter to the front of carbon powder suspension and to the distal end of the large intestine was measured. • propelling distance of carbon powder in the intestine (cm)=distance from pylorus to the proximal end of carbon powder; • mass of carbon powder gavaged=concentration of carbon powder suspension×volume; • propelling rate of carbon powder (%)=propelling distance of carbon powder in the intestine (cm)/entire length of intestine (cm)×100%; • rate of gastric remains (%)=(gross weight of stomach−net weight of stomach)/mass of carbon powder gavaged×100%.
The animals were fasted 29-33 hours before injection, and the animals were not given any water 5-7 hours before injection. Injections were made by subcutaneous administration to the neck, at 0.1 ml/100 g body weight.

[6] = tested on: patients with type 2 diabetes; test: trial 5C: Beinaglutide with metformin, multicenter, type 2 diabetes; format: in vivo, human
Text: Note: Covariance analysis was used for comparison between groups. The dependent variable was the change in body weight relative to baseline, and the covariate was baseline. Body weight change from baseline=post-treatment−baseline. Data from 5C test data.

[7] = Test group (Beinaglutide+metformin), 84 days (12 weeks) from baseline
[8] = Test group, 248 subjects, 84 days from baseline
[9] = Test group, 84 days from baseline

CC[C@H](C)[C@H](NC(=O)[C@H](Cc1ccccc1)NC(=O)[C@H](CCC(=O)O)NC(=O)[C@H](CCCCN)NC(=O)[C@H](C)NC(=O)[C@H](C)NC(=O)[C@H](CCC(N)=O)NC(=O)CNC(=O)[C@H](CCC(=O)O)NC(=O)[C@H](CC(C)C)NC(=O)[C@H](Cc1ccc(O)cc1)NC(=O)[C@H](CO)NC(=O)[C@H](CO)NC(=O)[C@@H](NC(=O)[C@H](CC(=O)O)NC(=O)[C@H](CO)NC(=O)[C@@H](NC(=O)[C@H](Cc1ccccc1)NC(=O)[C@@H](NC(=O)CNC(=O)[C@H](CCC(=O)O)NC(=O)[C@H](C)NC(=O)[C@@H](N)Cc1cnc[nH]1)[C@@H](C)O)[C@@H](C)O)C(C)C)C(=O)N[C@@H](C)C(=O)N[C@@H](Cc1c[nH]c2ccccc12)C(=O)N[C@@H](CC(C)C)C(=O)N[C@H](C(=O)N[C@@H](CCCCN)C(=O)NCC(=O)N[C@@H](CCCNC(=N)N)C(=O)O)C(C)C [Beinaglutide]
body fat content ([1]; Group 1, end of week 7, compared to baseline): decrease in body fat content
body fat content ([1]; Group 2, end of week 4, compared to baseline): significant decrease in body fat content
signs of anorexia ([1]; Group 2, 40 μg/kg three times a day, first three days of week 4): severe signs of anorexia
Body Weight ([1]; animal F1 (female, Group 1), Week 5, 10 μg/kg twice a day, Week 4 before treatment 5.96): 5.92 kg
BMI ([1]; animal F1, Week 5, 10 μg/kg twice a day, Week 4 before treatment 41): 39 kg/m^2
Body Weight ([1]; animal F1, Week 6, 20 μg/kg twice a day, Week 4 before treatment 5.96): 5.94 kg
BMI ([1]; animal F1, Week 6, 20 μg/kg twice a day, Week 4 before treatment 41): 39 kg/m^2
Body Weight ([1]; animal F1, Week 7, 20 μg/kg twice a day, Week 4 before treatment 5.96): 5.84 kg
BMI ([1]; animal F1, Week 7, 20 μg/kg twice a day, Week 4 before treatment 41): 38 kg/m^2
Fat Content (DEXA) ([1]; animal F1, Week 7, after Beinaglutide weeks 5-7, Week 4 1.98): 1.81 kg
Lean Mass (DEXA) ([1]; animal F1, Week 7, after Beinaglutide weeks 5-7, Week 4 4.09): 3.98 kg
Body Fat Percentage ([1]; animal F1, Week 7, after Beinaglutide weeks 5-7, Week 4 33.2): 31.0%
Body Weight ([1]; animal F2 (female, Group 2), Week 2, 10 μg/kg three times a day, Week 1 baseline 6.18): 5.96 kg
Body Weight ([1]; animal F2, Week 3, 20 μg/kg three times a day, Week 1 baseline 6.18): 5.76 kg
Body Weight ([1]; animal F2, Week 4, 40/20 μg/kg three times a day, Week 1 baseline 6.18): 5.56 kg
BMI ([1]; animal F2, Week 4, 40/20 μg/kg three times a day, Week 1 baseline 41): 37 kg/m^2
Fat Content (DEXA) ([1]; animal F2, Week 4, after Beinaglutide weeks 2-4, baseline 2.97): 2.71 kg
Lean Mass (DEXA) ([1]; animal F2, Week 4, after Beinaglutide weeks 2-4, baseline 3.17): 2.89 kg
Body Fat Percentage ([1]; animal F2, Week 4, after Beinaglutide weeks 2-4, baseline 48.1): 48.7%
Body Weight ([1]; animal M1 (male, Group 1), Week 5, 10 μg/kg twice a day, Week 4 before treatment 11.20): 10.90 kg
BMI ([1]; animal M1, Week 5, 10 μg/kg twice a day, Week 4 before treatment 51): 49 kg/m^2
Body Weight ([1]; animal M1, Week 6, 20 μg/kg twice a day, Week 4 before treatment 11.20): 10.44 kg
BMI ([1]; animal M1, Week 6, 20 μg/kg twice a day, Week 4 before treatment 51): 47 kg/m^2
Body Weight ([1]; animal M1, Week 7, 20 μg/kg twice a day, Week 4 before treatment 11.20): 10.26 kg
BMI ([1]; animal M1, Week 7, 20 μg/kg twice a day, Week 4 before treatment 51): 46 kg/m^2
Fat Content (DEXA) ([1]; animal M1, Week 7, after Beinaglutide weeks 5-7, Week 4 3.66): 3.15 kg
Lean Mass (DEXA) ([1]; animal M1, Week 7, after Beinaglutide weeks 5-7, Week 4 7.35): 6.92 kg
Body Fat Percentage ([1]; animal M1, Week 7, after Beinaglutide weeks 5-7, Week 4 32.7): 30.7%
Body Weight ([1]; animal M2 (male, Group 2), Week 2, 10 μg/kg three times a day, Week 1 baseline 10.52): 10.30 kg
BMI ([1]; animal M2, Week 2, 10 μg/kg three times a day, Week 1 baseline 52): 51 kg/m^2
Body Weight ([1]; animal M2, Week 3, 20 μg/kg three times a day, Week 1 baseline 10.52): 10.00 kg
Body Weight ([1]; animal M2, Week 4, 40/20 μg/kg three times a day, Week 1 baseline 10.52): 9.70 kg
BMI ([1]; animal M2, Week 4, 40/20 μg/kg three times a day, Week 1 baseline 52): 48 kg/m^2
Fat Content (DEXA) ([1]; animal M2, Week 4, after Beinaglutide weeks 2-4, baseline 3.49): 2.88 kg
Lean Mass (DEXA) ([1]; animal M2, Week 4, after Beinaglutide weeks 2-4, baseline 6.88): 6.59 kg
Body Fat Percentage ([1]; animal M2, Week 4, after Beinaglutide weeks 2-4, baseline 33.2): 29.7%
body weight after three-week treatment ([1]; compared to baseline period, n=4, p<0.05): significant weight loss
weekly food/calories intake ([1]; during Beinaglutide treatment period compared to before treatment, p<0.05): significantly decreased
BMI after three weeks of treatment ([1]; two groups of animals): decreased
MTD at 504 h [2]: 0.02 to 0.04 mg/kg
half-life [3]: 15 to 30 min
effect on increase of blood sugar induced by alloxan and streptozotocin (rats): reduce the increase of blood sugar induced by alloxan and streptozotocin
adverse events ([4]; Beinaglutide clinical trials): mild to moderate nausea and vomiting
peak time ([4]; after administration (injection), type 2 diabetic patients): 20 min
half-life ([4]; human, in vivo, other: injection, type 2 diabetic patients, read-out: half-life (duration of action)): ~15 min
most common side effects (diabetes patients): nausea and vomiting
BMI (type 2 diabetic patients; 0.1 mg three times a day with metformin, treatment for 2 weeks, FAS n = 73, Day 1 26.24 ± 3.31): 26.12 ± 3.29 kg/m^2
BMI (type 2 diabetic patients; 0.1 mg three times a day with metformin, treatment for 4 weeks, FAS n = 73, Day 1 26.24 ± 3.31): 26.02 ± 3.33 kg/m^2
BMI (type 2 diabetic patients; 0.1 mg three times a day with metformin, treatment for 8 weeks, FAS n = 73, Day 1 26.24 ± 3.31): 25.84 ± 3.25 kg/m^2
BMI (type 2 diabetic patients; 0.1 mg three times a day with metformin, treatment for 12 weeks, FAS n = 73, Day 1 26.24 ± 3.31): 25.76 ± 3.21 kg/m^2
BMI (type 2 diabetic patients; 0.2 mg three times a day with metformin, treatment for 2 weeks, FAS n = 70, Day 1 25.14 ± 3.10): 25.03 ± 3.21 kg/m^2
BMI (type 2 diabetic patients; 0.2 mg three times a day with metformin, treatment for 4 weeks, FAS n = 70, Day 1 25.14 ± 3.10): 24.85 ± 3.25 kg/m^2
BMI (type 2 diabetic patients; 0.2 mg three times a day with metformin, treatment for 8 weeks, FAS n = 70, Day 1 25.14 ± 3.10): 24.54 ± 3.33 kg/m^2
BMI (type 2 diabetic patients; 0.2 mg three times a day with metformin, treatment for 12 weeks, FAS n = 70, Day 1 25.14 ± 3.10): 24.43 ± 3.42 kg/m^2
human dose corresponding to effective dose ([5]; from DIO mice 15 μg/kg): 0.12 mg/day
effective dose (inhibition of stomach emptying), as low as ([5]; male DIO mice): 0.015 mg/kg
% of Gastric Remains ([5]; male DIO mice, 15 μg/kg): 58.92 ± 3.39%
Gross Weight of Stomach ([5]; male DIO mice, 15 μg/kg): 0.49 ± 0.02 g
Propelling Distance of Carbon Powder ([5]; male DIO mice, 15 μg/kg): 20.50 ± 1.89 cm
Propelling Rate of Carbon Powder ([5]; male DIO mice, 15 μg/kg): 47.34 ± 4.63%
% of Gastric Remains ([5]; male DIO mice, 20 μg/kg): 63.46 ± 9.45%
Gross Weight of Stomach ([5]; male DIO mice, 20 μg/kg): 0.50 ± 0.04 g
Propelling Distance of Carbon Powder ([5]; male DIO mice, 20 μg/kg): 14.21 ± 2.59 cm
Propelling Rate of Carbon Powder ([5]; male DIO mice, 20 μg/kg): 34.86 ± 6.72%
% of Gastric Remains ([5]; male DIO mice, 25 μg/kg): 62.69 ± 7.26%
Gross Weight of Stomach ([5]; male DIO mice, 25 μg/kg): 0.53 ± 0.03 g
Propelling Distance of Carbon Powder ([5]; male DIO mice, 25 μg/kg): 15.00 ± 2.45 cm
Propelling Rate of Carbon Powder ([5]; male DIO mice, 25 μg/kg): 35.25 ± 5.72%
% of Gastric Remains ([5]; male DIO mice, 50 μg/kg): 70.86 ± 7.41%
Gross Weight of Stomach ([5]; male DIO mice, 50 μg/kg): 0.55 ± 0.02 g
Propelling Distance of Carbon Powder ([5]; male DIO mice, 50 μg/kg): 10.00 ± 1.04 cm
Propelling Rate of Carbon Powder ([5]; male DIO mice, 50 μg/kg): 23.80 ± 2.41%
% of Gastric Remains ([5]; male DIO mice, 75 μg/kg): 78.34 ± 5.75%
Gross Weight of Stomach ([5]; male DIO mice, 75 μg/kg): 0.57 ± 0.03 g
Propelling Distance of Carbon Powder ([5]; male DIO mice, 75 μg/kg): 9.29 ± 1.23 cm
Propelling Rate of Carbon Powder ([5]; male DIO mice, 75 μg/kg): 21.51 ± 2.63%
% of Gastric Remains ([5]; male DIO mice, 100 μg/kg): 74.37 ± 6.06%
Gross Weight of Stomach ([5]; male DIO mice, 100 μg/kg): 0.56 ± 0.02 g
Propelling Distance of Carbon Powder ([5]; male DIO mice, 100 μg/kg): 9.00 ± 1.12 cm
Propelling Rate of Carbon Powder ([5]; male DIO mice, 100 μg/kg): 20.87 ± 2.19%
Week 12 BMI ([6]; 0.2 mg three times a day with metformin, Baseline BMI 25.81): 25.09 kg/m^2
BMI Change ([6]; 0.2 mg three times a day with metformin, baseline to week 12, 0 mg group −0.40): −0.72
difference Test-Control group in body weight change, Corrected mean ([6]; 84 days after medication, covariance analysis, P 0.0075): −0.82
change in body weight from baseline, median ([6]; Test group (0.2 mg three times a day + metformin), overweight and obese patients, ITT, 84 days after medication): -2.00 kg
change in body weight from baseline, Mean ± standard deviation ([6]; Test group (0.2 mg three times a day + metformin), overweight and obese patients, ITT, 84 days after medication, 248 subjects): -2.22 ± 2.55 kg
proportion of subjects with Weight loss ≥ 3% [6, 7]: (40.32) %
proportion of subjects with weight loss ≥5% [6, 7]: (20.97) %
number of subjects with Weight loss < 3% [6, 8]: 148
number of subjects with Weight loss < 5% [6, 8]: 196
number of subjects with Weight loss ≥ 3% [6, 8]: 100
number of subjects with Weight loss ≥ 5% [6, 8]: 52
proportion of subjects with Weight loss < 3% [6, 9]: (59.68) %
proportion of subjects with Weight loss < 5% [6, 9]: (79.03) %
